Patent publication US8193333B2, “Cancer therapy using Bcl-Xl-specific siNA” (Centre Regional de Lutte Contre le Cancer-Centre Francois …, priority 2006, dated 2012)

Test system: SKOV3 cells
Assay: Apoptosis induction in SKOV3 cells (cell and nuclear morphology after DAPI, caspase 3 activation and PARP cleavage by Western blot)
Assay type: cell-based, human
Procedure: Exponentially growing cells were exposed to CDDP for 2 hours at 37° C., in serum free medium. After exposure to the drug, the cell layers were rinsed and incubated in complete growth medium.
The siRNA duplexes were transfected according to the recommended procedure by using the Oligofectamine Reagent and Opti-MEM medium (INVITROGEN LIFE TECHNOLOGIES). 30-40% confluent cells were transfected in 25 cm^2 flasks with different concentrations of siXL1, siRNA Mcl-1 or siRNA control and incubated at 37° C., 5% CO2 for 4 hours. Next, 20% fetal bovin serum was added to reach a final concentration of 10% foetal bovin serum in the 25 cm^2 flask.
Cells were rinsed with ice cold PBS and lysed in 150 mM NaCl, 50 mM Tris-HCl pH 8, 1% Triton X100, 4 mM PMSF, 2 mM Aprotinin, 5 mM EDTA, 10 mM NaF, 10 mM NaPPi, 1 mM Na3VO4 for 30 min on ice. Lysates were clarified by centrifugation at 10000 g for 10 min at 4° C. and protein concentrations were determined using the Bradford assay (BIO-RAD). Equal amounts of total cellular protein (20 μg) were resolved in a Bis-tris-HCL buffered (pH 6.4) 4-12% polyacrylamide gel (NuPAGE® Novex® 4-12% Bis-tris gel, INVITROGEN) for 35 min at 200V and electrophoretically transferred on a PVDF membrane (MILLIPORE) for 75 min at 30V. The membrane was blocked for 1 hour at room temperature in T-TBS (132 mM NaCl, 20 mM Tris-HCl pH 7.6, 0.05% Tween 20) supplemented with 5% non-fat dry milk. The membrane was incubated for 1 hour at room temperature in T-TBS-milk with the following primary antibodies: anti-Bcl-XL/S (1:500, S18 SANTA-CRUZ BIOTECHNOLOGY), anti-PARP (1:1000, CELL-SIGNALING TECHNOLOGY), anti-caspase-3 (1:1000, BD BIOSCIENCES PHARMINGEN) anti-cleaved caspase-3 (1:1000, CELL-SIGNALING TECHNOLOGY), anti-alpha-tubulin (1:3000, SIGMA) and anti-Mcl-1 (1:750, S19 SANTA-CRUZ BIOTECHNOLOGY). After three washes with T-TBS, the membrane was incubated for 1 h at room temperature in T-TBS-milk with the adequate peroxidase conjugated secondary antibody (Anti-rabbit IgG, CELL-SIGNALING TECHNOLOGY, and anti-mouse IgG, AMERSHAM). After 3 washes with T-TBS and one with TBS, the immunoreactivity was detected by enhanced chemiluminescence (ECL kit, AMERSHAM).
After treatment, detached cells were collected separately and adherent cells were dissociated by trypsin/EDTA. Adherent and detached cells were then pooled and centrifuged at 1500×g for 5 min before being fixed in 70% ethanol. The cells were then collected on a polylysine-coated glass slide by cytocentrifugation, before a 30 min room temperature incubation in a 1 μg/ml DAPI aqueous solution (BOEHRINGER MANNHEIM). Slides were thereafter extensively washed in distilled water and mounted in Mowiol (CALBIO-CHEM).

## siXL1: double-stranded siRNA blocking Bcl-XL expression; sense 5′-auuggugagucggaucgcatt-3′ (SEQ ID NO: 5), anti-sense 5′-ugcgauccgacucaccaautt-3′ (SEQ ID NO: 6) (sense AUUGGUGAGUCGGAUCGCATT; antisense UGCGAUCCGACUCACCAAUTT; chemistry not given here)
24 h, combination with 20 μg/ml cisplatin
  caspase 3 activation and PARP cleavage after 24 h exposure to cisplatin: detectable
72 h after transfection, FIG. 5
  apoptosis induction (cellular and nuclear morphology, caspase 3 cleavage): moderate apoptosis
Alone 150 nM or in combination 75 nM each, FIGS. 13 and 14
  apoptosis / cell death (nuclear fragmentation and condensation, morphology, pre-G1 peak): moderate apoptosis
